The values that follow come from patent US20200078468A1, “NEUROTENSIN RECEPTOR BINDING CONJUGATES AND FORMULATIONS THEREOF” (priority 2016, published 2020).

SMILES strings stand for the structures. pIC50, pKi: −log10 of the molar value.

A word on the pKi: it is the Ki on a negative log10 scale, so that one unit is a factor of ten.

T1 sequence (P30989 whole entry): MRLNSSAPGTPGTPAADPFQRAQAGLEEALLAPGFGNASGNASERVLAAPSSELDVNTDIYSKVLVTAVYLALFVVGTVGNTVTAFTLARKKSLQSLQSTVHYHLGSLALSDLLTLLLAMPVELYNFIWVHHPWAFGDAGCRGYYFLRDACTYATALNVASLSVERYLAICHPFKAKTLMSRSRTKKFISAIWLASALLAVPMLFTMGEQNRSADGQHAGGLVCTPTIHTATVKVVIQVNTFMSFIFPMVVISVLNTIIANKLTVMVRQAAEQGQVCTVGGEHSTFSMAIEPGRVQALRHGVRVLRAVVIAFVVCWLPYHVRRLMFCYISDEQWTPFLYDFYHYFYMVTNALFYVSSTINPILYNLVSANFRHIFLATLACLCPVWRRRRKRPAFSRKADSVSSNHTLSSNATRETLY

One assay has as its system SW48 (human colon cancer cells). Kind of assay: inhibition of SW48 cell proliferation (CellTiter Glo). Type of assay: cell-based. The note with it: NTSR1 scrambled compound; 72 hrs; read-out: SW-48 proliferation IC50. Here is the method:
Conjugates were assessed in an in vitro assay evaluating inhibition of cell proliferation. SW48 (human colon cancer cells, ATCC®), cells were plated in 96 well, flat-bottomed plates (Costar) at a concentration of 5,000 cells/well. Cells were then incubated at 37° C. with 5% CO2 for 24 hrs. After 24 hrs, cells were treated with 0.01% DMSO or compound. Compounds were added at a starting dose of 10 μM and three fold serial dilutions were done for a total often points. Following compound addition, cells were incubated at 37° C. with 5% CO2 for 72 hrs. Proliferation was measured by CellTiter Glo reagent using the standard protocol (Promega) and a Glomax multi+detection system (Promega). Percent proliferation inhibition was calculated using the following formula: % inhibition=(control−treatment)/control*100. Control is defined as vehicle alone. IC50 curves were generated using the nonlinear regression analysis (four parameter) with GraphPad Prism 6.
Conjugates are assessed for receptor-dependent cytotoxicity by the difference between an NTSR1-targeting conjugate, and the corresponding conjugate with the same linker moiety and active agent where the NTSR1-targeting domain has been scrambled.
As to `CC[C@H](C)[C@@H]([C@@H](CC(=O)N1CCC[C@H]1[C@H](OC)[C@@H](C)C(=O)N[C@H](C)[C@@H](O)c1ccccc1)OC)N(C)C(=O)[C@@H](NC(=O)[C@H](C(C)C)N(C)C(=O)OCc1ccc(NC(=O)[C@H](CCCNC(N)=O)NC(=O)[C@@H](NC(=O)CCCCCN2C(=O)CC(SCCC(=O)NCCOCCOCCC(=O)NCCCC[C@H](NC(C)=O)C(=O)N3CCC[C@H]3C(=O)N[C@@H](CC(C)C)C(=O)N3CCC[C@H]3C(=O)N(C)[C@@H](CCCNC(=N)N)C(=O)N[C@H](C(=O)N[C@@H](CCCNC(=N)N)C(=O)N[C@@H](Cc3ccc(O)cc3)C(=O)O)C(C)(C)C)C2=O)C(C)C)cc1)C(C)C` (stereo partly shown) [Compound 94], the pIC50 was 7.28.

Regarding `CC[C@H](C)[C@@H]([C@@H](CC(=O)N1CCC[C@H]1[C@H](OC)[C@@H](C)C(=O)N[C@H](C)[C@@H](O)c1ccccc1)OC)N(C)C(=O)[C@@H](NC(=O)[C@H](C(C)C)N(C)C(=O)OCc1ccc(NC(=O)[C@H](CCCNC(N)=O)NC(=O)[C@@H](NC(=O)CCCCCN2C(=O)CC(SCCC(=O)NCCOCCOCCOCCOCCC(=O)NCCCC[C@H](NC(C)=O)C(=O)N3CCC[C@H]3C(=O)N[C@@H](CC(C)C)C(=O)N3CCC[C@H]3C(=O)N(C)[C@@H](CCCNC(=N)N)C(=O)N[C@H](C(=O)N[C@@H](CCCNC(=N)N)C(=O)N[C@@H](Cc3ccc(O)cc3)C(=O)O)C(C)(C)C)C2=O)C(C)C)cc1)C(C)C` (stereo partly shown) [Compound 95], the pIC50 is 7.22.

Regarding `CC[C@H](C)[C@@H]([C@@H](CC(=O)N1CCC[C@H]1[C@H](OC)[C@@H](C)C(=O)N[C@H](C)[C@@H](O)c1ccccc1)OC)N(C)C(=O)[C@@H](NC(=O)[C@H](C(C)C)N(C)C(=O)OCc1ccc(NC(=O)[C@H](CCCNC(N)=O)CC(=O)[C@@H](NC(=O)CCCCCN2C(=O)CC(SCCC(=O)NCCOCCOCCOCCOCCOCCOCCOCCOCCC(=O)NCCCC[C@H](NC(C)=O)C(=O)N3CCC[C@H]3C(=O)N[C@@H](CC(C)C)C(=O)N3CCC[C@H]3C(=O)N(C)[C@@H](CCCNC(=N)N)C(=O)N[C@H](C(=O)N[C@@H](CCCNC(=N)N)C(=O)N[C@@H](Cc3ccc(O)cc3)C(=O)O)C(C)(C)C)C2=O)C(C)C)cc1)C(C)C` (stereo partly shown) [Compound 96], the pIC50 was 7.12.

As to `CCc1c2c(nc3ccc(O)cc13)-c1cc3c(c(=O)n1C2)COC(=O)[C@@]3(CC)OC(=O)OCCSSC(C)(C)[C@H](NC(C)=O)C(=O)N1CCC[C@H]1C(=O)N[C@@H](CC(C)C)C(=O)N1CCC[C@H]1C(=O)N[C@@H](CCCNC(=N)N)C(=O)N[C@H](C(=O)N[C@@H](CCCNC(=N)N)C(=O)N[C@@H](Cc1ccc(O)cc1)C(=O)O)C(C)(C)C` [Compound 97], the pIC50 is 6.91.

Consider `CCc1c2c(nc3ccc(O)cc13)-c1cc3c(c(=O)n1C2)COC(=O)[C@@]3(CC)OC(=O)OCc1ccc(NC(=O)[C@H](CCCNC(N)=O)NC(=O)[C@@H](NC(=O)CCCCCN2C(=O)CC(SC(C)(C)[C@H](NC(C)=O)C(=O)N3CCC[C@H]3C(=O)N[C@@H](CC(C)C)C(=O)N3CCC[C@H]3C(=O)N[C@@H](CCCNC(=N)N)C(=O)N[C@H](C(=O)N[C@@H](CCCNC(=N)N)C(=O)N[C@@H](Cc3ccc(O)cc3)C(=O)O)C(C)(C)C)C2=O)C(C)C)cc1` (stereo partly shown) [Compound 98], for which the pIC50 is 7.21.

With `CCc1c2c(nc3ccc(O)cc13)-c1cc3c(c(=O)n1C2)COC(=O)[C@@]3(CC)OC(=O)CNC(=O)CNC(=O)[C@H](CC(C)C)NC(=O)[C@H](Cc1ccccc1)NC(=O)CNC(=O)CCCCCN1C(=O)CC(SC(C)(C)[C@H](NC(C)=O)C(=O)N2CCC[C@H]2C(=O)N[C@@H](CC(C)C)C(=O)N2CCC[C@H]2C(=O)N[C@@H](CCCNC(=N)N)C(=O)N[C@H](C(=O)N[C@@H](CCCNC(=N)N)C(=O)N[C@@H](Cc2ccc(O)cc2)C(=O)O)C(C)(C)C)C1=O` (stereo partly shown) [Compound 99], the pIC50 is 6.11.

The next assay has as its target T1, human NTSR1 (Homo sapiens, UniProt P30989).
T1 construct: host or cells: HEK-293 cells (membrane preparations)
Briefly: radioligand-receptor binding assay, [125I] labeled neurotensin (Eurofins Panlabs). The note with it: [125I] neurotensin 0.02 nM, membranes from NTSR1 expressing HEK-293 cells, 45 minute incubation, Cheng and Prusoff; read-out: NTSR1 binding Ki. Here is the method:
Conjugates were assessed in an in vitro assay evaluating binding to NTSR1. A radioligand-receptor binding assay was conducted at Eurofins Panlabs (Taiwan) to determine the affinity of conjugates described herein to NTSR1. The assay measures binding of radiolabeled ligand, [^125I] labeled neurotensin, to human NTSR1 using membrane preparations from NTSR1 expressing HEK-293 cells (Human embryonic kidney cells 293). Membranes were incubated with radiolabeled neurotensin (0.02 nM) in the presence of conjugate/compound starting at a dose of either 100 nM, or 10 nM, using 3× serial dilutions to obtain a 6-pt curve. After a 45 minute incubation, membranes were filtered and washed 3× and counted to determine the remaining [^125I] neurotensin bound to the receptor. IC50 values were determined by a non-linear, least squares regression analysis using MathIQ™ (ID Business Solutions Ltd., UK). The Ki values were calculated using the equation of Cheng and Prusoff (Cheng and Prusoff, Biochem. Pharmacol. 22:3099-3108, 1973) using the observed IC50 of the tested conjugate/compound, the concentration of radioligand employed in the assay, and the historical values for the Kd of the ligand obtained at Eurofins.
For `CO[C@H]1C(=O)[C@]2(C)[C@@H](OC)C[C@H]3OC[C@@]3(OC(C)=O)[C@H]2[C@H](OC(=O)c2ccccc2)[C@]2(O)C[C@H](OC(=O)[C@H](OC(=O)OCCSSC(C)(C)[C@H](NC(C)=O)C(=O)N3CCC[C@H]3C(=O)N[C@@H](CCCNC(=N)N)C(=O)N[C@@H](CCCNC(=N)N)C(=O)N3CCC[C@H]3C(=O)N[C@@H](Cc3ccc(O)cc3)C(=O)N[C@H](C(=O)N[C@@H](CC(C)C)C(=O)O)C(C)(C)C)[C@@H](NC(=O)OC(C)(C)C)c3ccccc3)C(C)=C1C2(C)C` [Compound 2], the pKi was 8.40.

On to `CO[C@H]1C(=O)[C@]2(C)[C@@H](OC)C[C@H]3OC[C@@]3(OC(C)=O)[C@H]2[C@H](OC(=O)c2ccccc2)[C@]2(O)C[C@H](OC(=O)[C@H](OC(=O)CNC(=O)[C@H](CC(C)C)NC(=O)[C@H](Cc3ccccc3)NC(=O)CNC(=O)CCCCCN3C(=O)CC(SC(C)(C)[C@H](NC(C)=O)C(=O)N4CCC[C@H]4C(=O)N[C@@H](CCCNC(=N)N)C(=O)N[C@@H](CCCNC(=N)N)C(=O)N4CCC[C@H]4C(=O)N[C@@H](Cc4ccc(O)cc4)C(=O)N[C@H](C(=O)N[C@@H](CC(C)C)C(=O)O)C(C)(C)C)C3=O)[C@@H](NC(=O)OC(C)(C)C)c3ccccc3)C(C)=C1C2(C)C` (stereo partly shown) [Compound 3], for which the pKi is 8.79.

Take `CC[C@H](C)[C@H](NC(=O)[C@H](Cc1ccc(O)cc1)NC(=O)[C@@H]1CCCN1C(=O)[C@H](CCCNC(=N)N)NC(=O)[C@@H](CCCNC(=N)N)NC(=O)[C@@H]1CCCN1C(=O)[C@H](CCCCNC(=O)CCSC1CC(=O)N(CCCCCC(=O)NCC(=O)N[C@@H](Cc2ccccc2)C(=O)N[C@@H](CC(C)C)C(=O)NCC(=O)NCCCN2C(=O)CC(SCCC(=O)N(C)[C@@H](C)C(=O)O[C@H]3CC(=O)N(C)c4cc(cc(OC)c4Cl)C/C(C)=C/C=C/[C@@H](OC)[C@@]4(O)C[C@H](OC(=O)N4)[C@@H](C)[C@@H]4O[C@@]34C)C2=O)C1=O)NC(C)=O)C(=O)N[C@@H](C[Si](C)(C)C)C(=O)O` (stereo partly shown) [Compound 38]: the pKi is 10.06.

In the case of `COc1cc2cc(c1Cl)N(C)C(=O)C[C@H](OC(=O)[C@H](C)N(C)C(=O)CCSC1CC(=O)N(CCCNC(=O)CNC(=O)[C@H](CC(C)C)NC(=O)[C@H](Cc3ccccc3)NC(=O)CNC(=O)CCCCCN3C(=O)CC(SCCC(=O)NCCCC[C@H](NC(C)=O)C(=O)N4CCC[C@H]4C(=O)N[C@H](CCCNC(=N)N)C(=O)N[C@@H](CCCNC(=N)N)C(=O)N4CCC[C@H]4C(=O)N[C@@H](Cc4ccc(O)cc4)C(=O)N[C@H](C(=O)N[C@@H](C[Si](C)(C)C)C(=O)O)[C@@H](C)OC)C3=O)C1=O)[C@]1(C)O[C@H]1[C@H](C)[C@@H]1C[C@@](O)(NC(=O)O1)[C@H](OC)/C=C/C=C(\C)C2` (stereo partly shown) [Compound 39], the pKi was 9.10.

With `COc1cc2cc(c1Cl)N(C)C(=O)C[C@H](OC(=O)[C@H](C)N(C)C(=O)CCSC1CC(=O)N(CCCNC(=O)CNC(=O)[C@H](CC(C)C)NC(=O)[C@H](Cc3ccccc3)NC(=O)CNC(=O)CCCCCN3C(=O)CC(SCCC(=O)NCCCC[C@H](NC(C)=O)C(=O)N4CCC[C@H]4C(=O)N[C@H](CCCNC(=N)N)C(=O)N[C@@H](CCCNC(=N)N)C(=O)N4CCC[C@H]4C(=O)N[C@@H](Cc4ccc(O)cc4)C(=O)N[C@H](C(=O)N[C@@H](C[Si](C)(C)C)C(=O)O)C(C)(C)C)C3=O)C1=O)[C@]1(C)O[C@H]1[C@H](C)[C@@H]1C[C@@](O)(NC(=O)O1)[C@H](OC)/C=C/C=C(\C)C2` (stereo partly shown) [Compound 40], the pKi is 9.44.

Turning to `COc1cc2cc(c1Cl)N(C)C(=O)C[C@H](OC(=O)[C@H](C)N(C)C(=O)CCSC1CC(=O)N(CCCNC(=O)CNC(=O)[C@H](CC(C)C)NC(=O)[C@H](Cc3ccccc3)NC(=O)CNC(=O)CCCCCN3C(=O)CC(SCCC(=O)NCCCC[C@H](NC(C)=O)C(=O)N4CCC[C@H]4C(=O)N[C@H](CCCNC(=N)N)C(=O)N[C@@H](CCCNC(=N)N)C(=O)N4CCC[C@H]4C(=O)N[C@@H](Cc4ccc(O)cc4)C(=O)N[C@H](C(=O)N[C@@H](C[Si](C)(C)C)C(=O)O)C4CCCCC4)C3=O)C1=O)[C@]1(C)O[C@H]1[C@H](C)[C@@H]1C[C@@](O)(NC(=O)O1)[C@H](OC)/C=C/C=C(\C)C2` (stereo partly shown) [Compound 41], the pKi was 9.05.

In the case of `COc1cc2cc(c1Cl)N(C)C(=O)C[C@H](OC(=O)[C@H](C)N(C)C(=O)CCSC1CC(=O)N(CCCNC(=O)CNC(=O)[C@H](CC(C)C)NC(=O)[C@H](Cc3ccccc3)NC(=O)CNC(=O)CCCCCN3C(=O)CC(SCCC(=O)NCCCC[C@H](NC(C)=O)C(=O)N4CCC[C@H]4C(=O)N[C@H](CCCNC(=N)N)C(=O)N[C@@H](CCCNC(=N)N)C(=O)N4CCC[C@H]4C(=O)N[C@@H](Cc4ccc(O)cc4)C(=O)N[C@H](C(=O)N[C@@H](C[Si](C)(C)C)C(=O)O)C4CCCC4)C3=O)C1=O)[C@]1(C)O[C@H]1[C@H](C)[C@@H]1C[C@@](O)(NC(=O)O1)[C@H](OC)/C=C/C=C(\C)C2` (stereo partly shown) [Compound 42], the pKi is 9.19.
